Measured values from patent US20110269826A1, “Method” (priority 2008, published 2011).

Test system: MPTP primates
Experiment: Dyskinesia and locomotor studies in drug-naive MPTP primates incl. L-Dopa and apomorphine challenge
Description: Evaluation of dyskinesias was performed in the efficacy studies describe above using a novel method for dyskinesia quantification based on video dyskinesia analysis (VDA) that assesses the whole range of dyskinetic movement continuously during the observed video sequence, using a standardized protocol.
To mimic clinical conditions, these drug-naive animals were further challenged with acute systemic administration of L-Dopa then with a pro-dyskinetic short-acting D1/D2 dopaminergic agonist (apomorphine).
Experimental Design. Neurotoxin MPTP was first administrated to 23 macaques until they developed severe Parkinsonism, these were then divided into experimental groups according to the following experiments: • 1. […] Animals were then challenged with L-Dopa and the number of dyskinesias was assessed with a specific software (The Observer®, Noldus)
Behaviour. All animals were assessed daily for their general clinical condition with special attention paid to the nutritional status. At the same time, the general neurological state of each macaque was assessed both pre- and post-lentiviral injections. To objectively quantify our neurological observations, animals were video-taped for 30 minutes before MPTP lesioning and at regular intervals following viral injections. The videos were then analyzed off-line by an examiner blinded to the experimental conditions. […]

Structure (SMILES): CN1CCc2cccc3c2[C@H]1Cc1ccc(O)c(O)c1-3 [apomorphine]
- dyskinesia induced by the drug in drug naive MPTP animals (acute systemic administration, no therapeutic vector): induced hyperkinetic behaviour with numerous dyskinetic movements
- locomotor activity of MPTP-long term and MPTP-LacZ primates after the drug (oral L-Dopa / apomorphine injection, to levels similar to normal primates, p<0.05): improved the locomotor activity
